Source: patent publication US8673938B2, “Chemical compounds” (priority 2006, dated 2014)

Biological target: T1, human 11βHSD1 enzyme (Homo sapiens (Human), UniProt P28845)
Assay: biochemical
Details: read-out: % inhibition of human 11-βHSD
Procedure: The evaluation of compounds described herein was carried out using a baculovirus expressed N terminal 6-His tagged full length human 11βHSD1 enzyme(*1). […] Inhibitors of 11βHSD1 reduce the conversion of cortisone to cortisol, which is identified by an increase in signal, in the above assay.
Compounds to be tested were dissolved in dimethyl sulphoxide (DMSO) to 10 mM and diluted further in assay buffer containing 1% DMSO to 10 fold the final assay concentration. Diluted compounds were then plated into black 384 well plates (Matrix, Hudson N.H., USA).
The assay plates were incubated for 25 minutes at 37° C. after which time the reaction was stopped by the addition of 10 μl of 0.5 mM glycerrhetinic acid plus conjugated cortisol (XL665 or D2). 10 μl of anti-cortisol Cryptate was then added and the plates sealed and incubated for 6 hours at room temperature.

T1 sequence (P28845 whole entry): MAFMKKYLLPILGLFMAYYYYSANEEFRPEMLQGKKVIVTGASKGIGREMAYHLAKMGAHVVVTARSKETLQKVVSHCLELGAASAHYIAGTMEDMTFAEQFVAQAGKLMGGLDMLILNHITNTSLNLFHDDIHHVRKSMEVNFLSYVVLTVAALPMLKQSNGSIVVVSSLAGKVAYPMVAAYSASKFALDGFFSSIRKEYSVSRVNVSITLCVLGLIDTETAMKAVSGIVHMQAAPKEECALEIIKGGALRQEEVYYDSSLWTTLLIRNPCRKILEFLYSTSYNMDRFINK

In order of falling inhibition at 30 µM:
1. CCCSc1nc(N2CCC[C@@H](CC(=O)O)C2)ccc1C(=O)N[C@H]1CC[C@H](O)CC1 [Example 125, 2-[(3S)-1-[5-[(4-hydroxycyclohexyl)carbamoyl]-6-propylsulfanyl-pyridin-2-yl]-3-piperidyl]acetic acid]  102%
2. O=C(N[C@H]1C2CC3CC1C[C@](O)(C3)C2)c1ccc(N2CCC[C@H]2C(=O)O)nc1SC1CCCCC1 [Example 101, (2S)-1-[6-cyclohexylsulfanyl-5-[((2r,5s)-5-hydroxy-2-adamantyl)carbamoyl]pyridin-2-yl]pyrrolidine-2-carboxylic acid]  100%
3. CCCSc1nc(N2CCC[C@@H](CC(=O)O)C2)ccc1C(=O)N(C)C1CCCCC1 [compound 169, 2-[(3S)-1-[5-(cyclohexyl-methyl-carbamoyl)-6-propylsulfanyl-pyridin-2-yl]-3-piperidyl]acetic acid]  100%
4. CCCSc1nc(N2CCC[C@@H](CC(=O)O)C2)ccc1C(=O)N(C)[C@H]1C2CC3CC1C[C@](O)(C3)C2 [Example 171, [(3S)-1-{5-[((2r,5s)-5-Hydroxyadamantan-2-yl)(methyl)carbamoyl]-6-(propylthio)pyridin-2-yl}piperidin-3-yl]acetic acid]  97%
5. CCCSc1nc(N2CC[C@@H](CC(=O)O)C2)ccc1C(=O)N[C@H]1C2CC3CC1C[C@](OC(F)F)(C3)C2 [Example 180, 2-[(3S)-1-[5-[[(2r,5s)-5-(Difluoromethoxy)-2-adamantyl]carbamoyl]-6-propylsulfanyl-pyridin-2-yl]pyrrolidin-3-yl]acetic acid]  95%
6. O=C(O)CO[C@@H]1CCN(c2ccc(C(=O)NC3C4CC5CC(C4)CC3C5)c(SC3CCCC3)n2)C1 (stereo partly drawn) [Example 70, 2-[(3R)-1-[5-(2-adamantylcarbamoyl)-6-cyclopentylsulfanyl-pyridin-2-yl]pyrrolidin-3-yl]oxyacetic acid]  95%
7. CCCSc1nc(N2CCC[C@@H](CC(=O)O)C2)ccc1C(=O)N(CC)C1CCCCC1 [Example 123, 2-[(3S)-1-[5-(cyclohexyl-ethyl-carbamoyl)-6-propylsulfanyl-pyridin-2-yl]-3-piperidyl]acetic acid]  94%
8. CCCSc1nc(NCC2CCC(C(=O)O)CC2)ccc1C(=O)N[C@H]1C2CC3CC1C[C@](O)(C3)C2 (stereo partly drawn) [Example 80, 4-[[[5-[((2r,5s)-5-hydroxy-2-adamantyl)carbamoyl]-6-propylsulfanyl-pyridin-2-yl]amino]methyl]cyclohexane-1-carboxylic acid]  94%
9. CCCSc1nc(N[C@H]2C3CC4CC2C[C@](C(=O)O)(C4)C3)ccc1C(=O)NC1CCCCC1 [Example 9, (3R,5S)-4-[[5-(cyclohexylcarbamoyl)-6-propylsulfanyl-pyridin-2-yl]amino]adamantane-1-carboxylic acid]  92%
10. CCCSc1nc(N2CCC[C@@H](CC(=O)O)C2)ccc1C(=O)N(C(C)C)C1CCCCC1 [Example 124, 2-[(3S)-1-[5-(cyclohexyl-propan-2-yl-carbamoyl)-6-propylsulfanyl-pyridin-2-yl]-3-piperidyl]acetic acid]  92%
11. CCCNc1nc(N2CCC[C@@H](CC(=O)O)C2)ccc1C(=O)N(C)C1CCCCC1 [compound 157, 2-[(3S)-1-[5-(cyclohexyl-methyl-carbamoyl)-6-propylamino-pyridin-2-yl]-3-piperidyl]acetic acid]  91%
12. CCCSc1nc(N2CCCC(C)(C(=O)O)C2)ccc1C(=O)NC1CCCCC1 (stereo not drawn) [Example 47, 1-[5-(cyclohexylcarbamoyl)-6-propylsulfanyl-pyridin-2-yl]-3-methyl-piperidine-3-carboxylic acid]  90%
13. CCCSc1nc(N2CCC(C)(C(=O)O)CC2)ccc1C(=O)N[C@H]1C2CC3CC1C[C@@](O)(C3)C2 [Example 88, 1-[5-[[(2r,5s)-5-hydroxy-2-adamantyl]carbamoyl]-6-propylsulfanyl-pyridin-2-yl]-4-methyl-piperidine-4-carboxylic acid]  89%
14. CCCSc1nc(N2CCC[C@H](CC(=O)O)C2)ccc1C(=O)N[C@H]1C2CC3CC1C[C@@](O)(C3)C2 [Example 85, 2-[(3R)-1-[5-[[(2r,5s)-5-hydroxy-2-adamantyl]carbamoyl)-6-propylsulfanyl-pyridin-2-yl]-3-piperidyl]acetic acid]  89%
15. CCCSc1nc(N2CCC(C)(C(=O)O)CC2)ccc1C(=O)NC1CCCCC1 [Example 32, 1-[5-(cyclohexylcarbamoyl)-6-propylsulfanyl-pyridin-2-yl]-4-methyl-piperidine-4-carboxylic acid]  89%
16. CCCSc1nc(N2CCC[C@@H](CC(=O)O)C2)ccc1C(=O)N(CC1CC1)C1CCCCC1 [Example 122, 2-[(3S)-1-[5-(cyclohexyl-(cyclopropylmethyl)carbamoyl)-6-propylsulfanyl-pyridin-2-yl]-3-piperidyl]acetic acid]  88%
17. CCCSc1nc(Oc2ccc(C(C)C(=O)O)cc2)ccc1C(=O)NC1CCCCC1 (stereo not drawn) [Example 21, 2-[4-[5-(cyclohexylcarbamoyl)-6-propylsulfanyl-pyridin-2-yl]oxyphenyl]propanoic acid]  88%
18. CCCSc1nc(N2CCC[C@H](CC(=O)O)C2)ccc1C(=O)NC1CCCCC1 [Example 1, 2-[(3R)-1-[5-(Cyclohexylcarbamoyl)-6-propylsulfanyl-pyridin-2-yl]-3-piperidyl]acetic acid]  87%
19. CCCSc1nc(N2CCC[C@@H](CC(=O)O)C2)ccc1C(=O)NC1CCCCC1 [Example 7, 2-[(3S)-1-[5-(cyclohexylcarbamoyl)-6-propylsulfanyl-pyridin-2-yl]-3-piperidyl]acetic acid]  87%
20. CC(=O)N1CCN(c2nc(N3CCC[C@@H](CC(=O)O)C3)ccc2C(=O)NC2CCCCC2)CC1 [compound 147, 2-[(3S)-1-[6-(4-acetylpiperazin-1-yl)-5-(cyclohexylcarbamoyl)pyridin-2-yl]-3-piperidyl]acetic acid]  86%
21. CCCSc1nc(N2CCCC(OC(C)(C)C(=O)O)C2)ccc1C(=O)NC1CCCCC1 (stereo not drawn) [Example 45]  85%
22. CCCSc1nc(N2CCC(C(=O)O)C2)ccc1C(=O)N[C@H]1C2CC3CC1C[C@@](O)(C3)C2 (stereo partly drawn) [Example 89, 1-[5-[[(2r,5s)-5-hydroxy-2-adamantyl]carbamoyl]-6-propylsulfanyl-pyridin-2-yl]pyrrolidine-3-carboxylic acid]  85%
23. O=C(O)C[C@@H]1CCN(c2ccc(C(=O)NC3C4CC5CC3CC(O)(C5)C4)c(SC3CCCC3)n2)C1 (stereo partly drawn) [Example 93, 2-[(3S)-1-[6-cyclopentylsulfanyl-5-[((2r,5s)-5-hydroxy-2-adamantyl)carbamoyl]pyridin-2-yl]pyrrolidin-3-yl]acetic acid]  85%
24. CCCSc1nc(Sc2cccc(C(=O)O)c2)ccc1C(=O)NC1CCCCC1 [Example 14, 3-[5-(cyclohexylcarbamoyl)-6-propylsulfanyl-pyridin2-yl]sulfanylbenzoic acid]  78%
25. CCCSc1nc(N2CCC(C(C)(C)C(=O)O)CC2)ccc1C(=O)NC1CCCCC1 [Example 48, 2-[1-[5-(cyclohexylcarbamoyl)-6-propylsulfanyl-pyridin-2-yl]-4-piperidyl]-2-methyl-propanoic acid]  75%

Biological target: T1, human 11βHSD1 enzyme
Assay: not given
Details: not given

In order of falling IC50:
1. CCCSc1nc(N2CCC[C@H](CC(=O)O)C2)ccc1C(=O)NC1CCCCC1 [Example 1, 2-[(3R)-1-[5-(Cyclohexylcarbamoyl)-6-propylsulfanyl-pyridin-2-yl]-3-piperidyl]acetic acid]  95 nM
2. CCCSc1nc(N2CCC[C@@H](CC(=O)O)C2)ccc1C(=O)NC1CCCCC1 [Example 7, 2-[(3S)-1-[5-(cyclohexylcarbamoyl)-6-propylsulfanyl-pyridin-2-yl]-3-piperidyl]acetic acid]  7 nM

Same assay, conditions: repeat assays

In the case of `O=C(O)C[C@@H]1CCCN(c2ccc(C(=O)NC3C4CC5CC(C4)CC3C5)cn2)C1` (stereo partly drawn) [2-[(3S)-1-[5-(2-adamantylcarbamoyl)pyridin-2-yl]-3-piperidyl]acetic acid], the “50% inhibition of the enzyme achieved” value is reported as “achieved 50% inhibition in one assay, but in a subsequent 3 assays did not”.

Same assay, conditions: test concentration of 30 μM of compound

In order of rising “% inhibition of human 11-βHSD” value:
1. Cc1nc(N2CCC[C@@H](CC(=O)O)C2)ccc1C(=O)NC1CCCCC1 [compound 159]  55%
2. O=C(O)C[C@@H]1CCCN(c2ccc(C(=O)NC3CCCCC3)cn2)C1 [compound 133]  58%
3. O=C(O)C[C@@H]1CCCN(c2ccc(C(=O)NC3CCCCC3)c(N3CCOCC3)n2)C1 [compound 156]  78%
4. Cc1nc(N2CCC[C@@H](CC(=O)O)C2)ccc1C(=O)NC12CC3CC(CC(C3)C1)C2 [compound 160]  80%
5. Cc1nc(N2CCC[C@@H](CC(=O)O)C2)ccc1C(=O)NC1C2CC3CC(C2)CC1C3 (stereo partly drawn) [compound 161]  84%
6. O=C(O)C[C@@H]1CCCN(c2ccc(C(=O)NC3C4CC5CC3CC(O)(C5)C4)c(SCCc3ccccc3)n2)C1 (stereo partly drawn) [compound 108]  88%
7. O=C(O)C[C@@H]1CCCN(c2ccc(C(=O)N[C@H]3C4CC5CC3C[C@@](O)(C5)C4)c(SCc3ccccc3)n2)C1 [compound 107]  90%
8. O=C(O)C[C@@H]1CCCN(c2ccc(C(=O)NC3CCCCC3)c(N3CCCC3)n2)C1 [compound 155]  94%
9. O=C(O)C[C@@H]1CCCN(c2ccc(C(=O)NC3CCCCC3)c(C3CC3)n2)C1 [compound 165]  95%
10. O=C(O)C[C@@H]1CCCN(c2ccc(C(=O)N[C@H]3C4CC5CC3C[C@@](O)(C5)C4)c(C3CC3)n2)C1 [compound 167]  95%
11. O=C(O)C[C@@H]1CCCN(c2ccc(C(=O)NC3C4CC5CC(C4)CC3C5)c(C3CC3)n2)C1 (stereo partly drawn) [compound 166]  95%
